Series [1] in a line: Stability in air / chemical stability (description). The note with it: for stability in air: normal conditions / ambient temperature.
Series [2] can be described thus: Thermodynamic stability of the crystalline form (description). It is filed as physicochemical. Conditions: low temperatures.
For series [3] the following is noted: for sequence of stability at room temperature: conditions for avoiding the formation of solvates, from Examples 8.1 to 8.4; for crystalline form found by Raman spectrum: Example 8.4: forms IV and II together in ethyl acetate.
Series [4] can be described thus: Hydrate formation in the presence of atmospheric moisture (description). It is filed as physicochemical. The note with it: for relative air humidity at which hydrates of the crystalline form V are formed: hydrochloride.
A short description of series [5]: Absorption of water by dynamic vapour sorption (DVS). Type of series: physicochemical. The note with it: 25° C.; for water content of the sample if the relative air humidity is reduced to 0%: 0% relative air humidity; for water content of the sample if the relative air humidity is reduced to 0% / water content at 50% relative air humidity at the end of the measuring cycle / relative air humidity above which the crystalline form absorbs water very quickly: hydrochloride. On the procedure: The absorption of water is ascertained by dynamic vapour sorption (DVS) with a DVS-1 instrument manufactured by Surface Measurement Systems Ltd. The sample is placed in a platinum crucible at the pivot of a microbalance. The sample is then initially equilibrated at 50% relative air humidity and then subjected to a predefined measuring program. The temperature was 25° C. The change in weight of the sample is determined.

A short description of series [6]: Humid storage of the crystalline forms II and III at 25° C. and 60% relative air humidity. Type of series: physicochemical. The method, then: Storage conditions: 25° C. and 60% relative air humidity for 5 hrs, 24 hrs and 7 days
The substances were weighed directly into DSC and TGA crucibles, and these crucibles were stored in a climate chamber.
50 mg of the substances were weighed into 1 ml vials, three times in each case, and these vials were then stored openly in a climate chamber.

The mark [7] stands for this setting: Example 8.1: forms I and II together in ethyl acetate, eleven days, 25° C.
Setting [8] is: presence of atmospheric moisture.
[9] abbreviates: 25° C., 60% relative air humidity, 24 hours, second test series.
The mark [10] stands for this setting: Example 8.3: forms III and II together in ethyl acetate, three days, 23° C.
[11] abbreviates: stir-mixing in ethyl acetate, 23° C.

The structures appear in SMILES notation. “Also recorded” adds a separate entry of the source. Counter-ions that a name gives are not always drawn. Like-named read-outs stand apart in the source and are kept apart here. Where only a bound is given, the exact number is not on record here.

The values below come from US8058476B2, “HCI polymorphs of 3-((2-(dimethylamino)methyl(cyclohex-1-yl)) phenol” (priority 2005, dated 2011).

For the compound `CN(C)CC1CCCCC1c1cccc(O)c1` [Amorphous compounds of the formula (1), (1R,2R)-3-[2-(dimethylamino)-methyl(cyclohex-1-yl)]phenol hydrochloride], in series [1] (in the presence of moisture tends to form hydrates), the “stability of the amorphous form” value is listed as “not very stable”.

As to `CN(C)CC1CCCCC1c1cccc(O)c1` [crystalline form V, (1R,2R)-3-[2-(dimethylamino)methyl(cyclohex-1-yl)]phenol hydrochloride], the stability in air result in series [1] (hydrochloride) is “stable in air under normal conditions; also recorded: stable at ambient temperature in air”.

With `CN(C)C[C@@H]1CCCC[C@H]1c1cccc(O)c1.Cl` [crystalline form I, (1R,2R)-3[-2-(dimethylamino)methyl-(cyclohex-1-yl)]phenol hydrochloride], in series [2], the “temperature up to which the form is thermodynamically the most stable form” value was “approximately 40 °C”. Besides, the “crystalline form found by Raman spectrum after stirring” value in series [3] (setting [7]) is “predominantly contained the crystalline form I and small amounts of form V”. In addition, the “sequence of stability at room temperature” value (“sequence of stability” for short) in series [3] is recorded as “I>II>III≈IV”. In addition, the “relative air humidity at which hydrates of the crystalline form V are formed” value in series [4] (setting [8]) is over 50%. Also, in series [5], the “water content of the sample if the relative air humidity is reduced to 0%” value amounted to 3.2 wt. %, the “water content at 50% relative air humidity at the end of the measuring cycle” value turned out to be 7.2%, the “recorded Raman spectrum at the end of the measuring cycle” value (“recorded Raman spectrum at the end” for short) is “corresponds to the Raman spectrum of the crystalline form V” and the “relative air humidity above which the crystalline form absorbs water very quickly” value is listed as over 50%.

Take `CN(C)C[C@@H]1CCCC[C@H]1c1cccc(O)c1.Cl` [crystalline form III, (1R,2R)-3-[2-(dimethylamino)methyl-(cyclohex-1-yl)]phenol hydrochloride]: the water absorbed came to 6.70% in series [6] (25° C., 60% relative air humidity, 5 hours, first test series (DSC and TGA crucibles), listed as modification III, hydrochloride); 1.92% in series [6] (25° C., 60% relative air humidity, 5 hours, second test series (50 mg in open 1 ml vials), listed as modification III, hydrochloride); 6.28% in series [6] (25° C., 60% relative air humidity, 24 hours, first test series, listed as modification III, hydrochloride). Besides, the water content stood at 6.08% in series [6] (setting [9]); 6.74% in series [6] (25° C., 60% relative air humidity, one week, first test series, listed as modification III, hydrochloride); 6.83% in series [6] (25° C., 60% relative air humidity, one week, second test series, listed as modification III, hydrochloride). The “crystalline form found by Raman spectrum after stirring” value in series [3] (Example 8.2: forms III and IV together in ethyl acetate, twelve days, 23° C.) is recorded as “only bands of the crystalline form I were measured”; in series [3] (setting [10]), “only bands of the crystalline form II are measured”. The “sequence of stability” value in series [3] is “I>II>III≈IV”. Further, the stability in air result in series [1] was “stable under normal conditions in air and with exclusion of atmospheric moisture”. The “relative air humidity at which hydrates of the crystalline form V are formed” value in series [4] (setting [8]) is listed as over 50%. Further, the “water content of the sample if the relative air humidity is reduced to 0%” value in series [5] is on record as 3.1 wt. %. For the same compound, the “water content at 50% relative air humidity at the end of the measuring cycle” value in series [5] came to 7.8%. Also, in series [5], the “recorded Raman spectrum at the end” value was “corresponds to the Raman spectrum of the crystalline form V”. For the same compound, the “relative air humidity above which the crystalline form absorbs water very quickly” value in series [5] is reported as over 55%.

Consider `CN(C)CC1CCCCC1c1cccc(O)c1` [crystalline form IV, (1R,2R)-3-[2-(dimethylamino)methyl(cyclohex-1-yl)]phenol hydrochloride], for which the “sequence of stability” value in series [3] was “I>II>III≈IV”. For the same compound, the stability in air entry in series [1] (hydrochloride) is “stable under normal conditions in air and with exclusion of atmospheric moisture”.

As for `CN(C)C[C@@H]1CCCC[C@H]1c1cccc(O)c1.Cl` [crystalline form II, (1R,2R)-3-[2-(dimethylamino)methyl-(cyclohex-1-yl)]phenol hydrochloride], the water absorbed in series [6] (25° C., 60% relative air humidity, 5 hours, first test series (DSC and TGA crucibles), listed as modification II, hydrochloride) was found to be 0.04%; in series [6] (25° C., 60% relative air humidity, 5 hours, second test series (50 mg in open 1 ml vials), listed as modification II, hydrochloride) it was 0.12%; in series [6] (25° C., 60% relative air humidity, 24 hours, first test series, listed as modification II, hydrochloride), 3.28%. In addition, the water content in series [6] (setting [9]) worked out at 6.08%; in series [6] (25° C., 60% relative air humidity, one week, first test series, listed as modification II, hydrochloride), 7.03%; in series [6] (25° C., 60% relative air humidity, one week, second test series, listed as modification II, hydrochloride) it was 7.04%. Further, in series [6] (25° C., 60% relative air humidity, both test series), the water-absorption behavior entry is reported as “absorbs water more slowly in both tests than modification III”. The “proportion of water after storage” value in series [6] (5 hours of storage at a relative air humidity of 60%) is under 0.15 wt. %. Also, the “crystalline form found by Raman spectrum after stirring” value in series [3] (setting [7]) is “predominantly contained the crystalline form I and small amounts of form V”; in series [3] (setting [10]), “only bands of the crystalline form II are measured”. Further, the “crystalline form found by Raman spectrum” value was “almost exclusively the crystalline form I was detected” in series [3] (23° C., after 32 days); “the first traces of the crystalline form I were detected” in series [3] (23° C., after the first three days); “only bands of the crystalline form II were measured” in series [3] (23° C., initially). Further, in series [3], the “sequence of stability” value is on record as “I>II>III≈IV”. Moreover, the “time at which a small proportion of the crystalline form I can be detected” value in series [3] (setting [11]) is “after three days of stir-mixing”. In addition, in series [3] (setting [11]), the “time until complete conversion into the crystalline form I” value is recorded as 32 days. The chemical stability entry in series [1] is “good chemical stability”. The stability in air entry in series [1] is “stable under normal conditions in air and with exclusion of atmospheric moisture”. Also, the hygroscopicity result in series [4] (compared with other crystalline forms) is “less hygroscopic than the compounds of the crystalline forms I, III and IV”. The “relative air humidity at which hydrates of the crystalline form V are formed (only slowly)” value in series [4] (setting [8]) was over 70%. In addition, the “relative air humidity at which hydrates of the crystalline form V are formed” value in series [4] (setting [8]) is listed as over 70%. For the same compound, the “water content of the sample if the relative air humidity is reduced to 0%” value in series [5] was determined as 3.3 wt. %. For the same compound, the “water content at 50% relative air humidity at the end of the measuring cycle” value in series [5] is 7.9%. The “recorded Raman spectrum at the end” value in series [5] is recorded as “corresponds to the Raman spectrum of the crystalline form V”. Further, the “relative air humidity above which the crystalline form absorbs water very quickly” value in series [5] is on record as over 75%.
